Tested on: C. difficile
Assay: CDAD treatment in hamsters infected with C. difficile
Format: in vivo
Conditions: for survival of hamsters infected with C. difficile: treated at the time of infection
Procedure: Optimal dosages and formulations of Rifalazil alone, or in combination with a second drug compound, can be determined using standard animal models known in the art. One example of an animal model for C. difficile associated disease is the Golden Syrian hamster. To determine the optimal dosage regimen of Rifalazil, Golden Syrian hamsters are injected subcutaneously with clindamycin phosphate (10 mg/kg) followed, 24 hours later, by oral gavage with 10^5 colony forming units (CFU) of C. difficile. Antibiotic treatment is then administered orally, either simultaneously or 24 hours after C. difficile administration Animals are monitored for survival, weight variations, identification of C. difficile toxins in cecal content, and histologic damage to ceca as compared to animals treated with a prophylactic protocol using standard methods known in the art (see, for example, Anton P. M. et al., Abstract ID No. 102471, Publishing ID No. T1741, presented at the American Gastroenterological Association Meeting, May 17-22, 2003; Anton P. M. et al., Gastroenterology 124:A558, 2003).
Hamsters were infected with C. difficile, and at the time of infection, were also treated with vancomycin (50 mg/kg) or Rifalazil (2 mg/kg).

[1] = microgranulated formulation, systemic administration, relatively high doses (FIG. 1)

Structure (SMILES) | survival of hamsters infected with C. difficile (Rifalazil 2 mg/kg) | relapses of CDAD in in vivo animal experiments [1] | treatment of CDAD in in vivo animal experiments [1] | survival of hamsters infected with C. difficile (vancomycin 50 mg/kg)
CO[C@H]1/C=C/O[C@@]2(C)Oc3c(C)c(O)c4c(=O)c(c5oc6cc(N7CCN(CC(C)C)CC7)cc(O)c6nc-5c4c3C2=O)NC(=O)/C(C)=C\C=C\[C@H](C)[C@H](O)[C@@H](C)[C@@H](O)[C@@H](C)[C@H](OC(C)=O)[C@@H]1C [Rifalazil, 3′-hydroxy-5′-(4-isobutyl-1-piperazinyl) benzoxazinorifamycin] | All animals treated with Rifalazil survived | no relapses were observed | effectively treated | –
CN[C@H](CC(C)C)C(=O)N[C@H]1C(=O)N[C@@H](CC(N)=O)C(=O)N[C@H]2C(=O)N[C@H]3C(=O)N[C@H](C(=O)N[C@H](C(=O)O)c4cc(O)cc(O)c4-c4cc3ccc4O)[C@H](O)c3ccc(c(Cl)c3)Oc3cc2cc(c3O[C@@H]2O[C@H](CO)[C@@H](O)[C@H](O)[C@H]2O[C@H]2C[C@](C)(N)[C@H](O)[C@H](C)O2)Oc2ccc(cc2Cl)[C@H]1O [vancomycin, reference compound] | – | – | – | eventually succumbed to the infection

Reference: patent publication US20110117154A1, “USE OF RIFALAZIL TO TREAT COLONIC DISORDERS” (ACTIVBIOTICS PHARMA, LLC, priority 2008, published 2011)
